Molecules are shown by their SMILES.

The text below walks through data of PMC10085697 (2023).

For assay [1], the system named is Mango II (RNA, aptamer) GCACGUACGAAGGAGAGGAGAGGAAGAGGAGAGUACGUGC
Put plainly: absorbance shift and fluorescence light-up. The conditions noted are these: 140 mM KCl; 10 mM Tris-HCl pH 7.5, 5 μM dye, 5 μM RNA.

The subject of assay [2] is Mango IV (RNA, aptamer) GCACGUACCGAGGGAGUGGUGAGGAUGAGGCGAGUACGUGC
Put plainly: absorbance shift and fluorescence light-up. To be noted: 140 mM KCl; 10 mM Tris-HCl pH 7.5, 5 μM dye, 5 μM RNA.

The test system of assay [3] is Broccoli (RNA, aptamer) GGGAGACGGUCGGGUCCAGAUAUUCGUAUCUGUCGAGUAGAGUGUGGGCUC
The assay can be described thus: absorbance and fluorescence titration. To be noted: 140 mM KCl; 10 mM Tris-HCl pH 7.5.

The subject of assay [4] is ds_Mango II (RNA, aptamer) GGUGUGGGGCACGUACGAAGGAGAGGAGAGGAAGAGGAGAGUACGUGCCCCACA
Put plainly: fluorescence light-up. To be noted: 140 mM KCl.

The subject of assay [5] is Control G4 RNA (utr-z) (RNA, G4) GGCGGCGGCAGUGGCGGCGG
The assay can be described thus: fluorescence light-up. The conditions noted are these: 140 mM KCl; 10 mM Tris-HCl pH 7.5, 5 μM dye, 5 μM RNA.

The subject of assay [6] is Broccoli (RNA, aptamer) GGGAGACGGUCGGGUCCAGAUAUUCGUAUCUGUCGAGUAGAGUGUGGGCUC
The assay can be described thus: fluorescence titration. The conditions noted are these: affinity called insignificant compared to that of Mango II; highest concentration not stated.

In assay [7] the test system is Mango II (RNA, aptamer) GCACGUACGAAGGAGAGGAGAGGAAGAGGAGAGUACGUGC
Put plainly: fluorescence light-up titration (Monolith NT.115). To be noted: 140 mM KCl; 10 mM Tris-HCl pH 7.5, 0.05% Tween-20, 25 °C, 10 nM dye; rough evaluation.

Assay [8] relates to Mango IV (RNA, aptamer) GCACGUACCGAGGGAGUGGUGAGGAUGAGGCGAGUACGUGC
The assay can be described thus: fluorescence light-up titration (Monolith NT.115). The conditions noted are these: 140 mM KCl; 10 mM Tris-HCl pH 7.5, 0.05% Tween-20, 25 °C, 10 nM dye; rough evaluation.

Turning to `CC1=CC(C)(C)N(C)c2ccc(/C=C/c3sc4ccccc4[n+]3Cc3cn(CCOCCOCCOCCNC(=O)CCCC[C@@H]4SC[C@@H]5NC(=O)N[C@@H]54)nn3)cc21`, the binding entry in assay [1] and in assay [2] was “yes” each time.

Turning to `CC1=N/C(=C\c2cc(F)c(O)c(F)c2)C(=O)N1C`, in assay [3], the binding result was “yes”.

`CN(C)c1ccc(/C=C/c2sc3ccccc3[n+]2Cc2cn(CCOCCOCCOCCNC(=O)CCCC[C@@H]3SC[C@@H]4NC(=O)N[C@@H]43)nn2)cc1`: the binding entry in assay [4] (20 mM sodium phosphate pH 7.2, 0.05% Tween-20, 1 μM) was “yes”; in assay [5], “weak”; in assay [6], “no”. The KD is 80 ± 60 nM in assay [7] and 600 ± 400 nM in assay [8].

As for `CN1C=CC(=Cc2sc3ccccc3[n+]2CC(=O)NCCOCCOCCOCCNC(=O)CCCC[C@@H]2SC[C@@H]3NC(=O)N[C@@H]32)c2ccccc21`, the binding entry in assay [4] (buffer stated for 4b only), in assay [5], in assay [1] and in assay [2] was “yes” each time.

For `CN1C=CC(=Cc2sc3ccccc3[n+]2Cc2cn(CCOCCOCCOCCNC(=O)CCCC[C@@H]3SC[C@@H]4NC(=O)N[C@@H]43)nn2)c2ccccc21`, the binding entry in assay [5], in assay [1] and in assay [2] was “yes” throughout.

Take `O=C(CCCC[C@@H]1SC[C@@H]2NC(=O)N[C@@H]21)NCCOCCOCCOCCn1cc(C[n+]2c(/C=C/c3cc4c5c(c3)CCCN5CCC4)sc3ccccc32)nn1`: the binding result in assay [1] and in assay [2] was “yes” in each case.

One may read the KD as the free concentration of one partner at which half of the binding sites on the other are occupied at equilibrium, for simple one-to-one binding. Low values mean higher affinity, high ones lower affinity.
